Experimental data as given in ChEMBL document CHEMBL4680201, “Design, synthesis, and pharmacological evaluation of 4- or 6-phenyl-pyrimidine derivatives as novel and selective Janus kinase 3 inhibitors” (Eur J Med Chem, 2020).
Active and inactive are the calls of the source. The calls are words filed in the database; no cut-off is given here.

How the values were obtained:
[1] = MRT (0 to t) in ICR mouse at 10 mg/kg, iv administered as single dose by LC-MS/MS analysis; type: ADME, organism-based; settings: in vivo
[2] = target: T1, Tyrosine-protein kinase JAK3 (Homo sapiens) (UniProt P52333)
T1 sequence (whole entry): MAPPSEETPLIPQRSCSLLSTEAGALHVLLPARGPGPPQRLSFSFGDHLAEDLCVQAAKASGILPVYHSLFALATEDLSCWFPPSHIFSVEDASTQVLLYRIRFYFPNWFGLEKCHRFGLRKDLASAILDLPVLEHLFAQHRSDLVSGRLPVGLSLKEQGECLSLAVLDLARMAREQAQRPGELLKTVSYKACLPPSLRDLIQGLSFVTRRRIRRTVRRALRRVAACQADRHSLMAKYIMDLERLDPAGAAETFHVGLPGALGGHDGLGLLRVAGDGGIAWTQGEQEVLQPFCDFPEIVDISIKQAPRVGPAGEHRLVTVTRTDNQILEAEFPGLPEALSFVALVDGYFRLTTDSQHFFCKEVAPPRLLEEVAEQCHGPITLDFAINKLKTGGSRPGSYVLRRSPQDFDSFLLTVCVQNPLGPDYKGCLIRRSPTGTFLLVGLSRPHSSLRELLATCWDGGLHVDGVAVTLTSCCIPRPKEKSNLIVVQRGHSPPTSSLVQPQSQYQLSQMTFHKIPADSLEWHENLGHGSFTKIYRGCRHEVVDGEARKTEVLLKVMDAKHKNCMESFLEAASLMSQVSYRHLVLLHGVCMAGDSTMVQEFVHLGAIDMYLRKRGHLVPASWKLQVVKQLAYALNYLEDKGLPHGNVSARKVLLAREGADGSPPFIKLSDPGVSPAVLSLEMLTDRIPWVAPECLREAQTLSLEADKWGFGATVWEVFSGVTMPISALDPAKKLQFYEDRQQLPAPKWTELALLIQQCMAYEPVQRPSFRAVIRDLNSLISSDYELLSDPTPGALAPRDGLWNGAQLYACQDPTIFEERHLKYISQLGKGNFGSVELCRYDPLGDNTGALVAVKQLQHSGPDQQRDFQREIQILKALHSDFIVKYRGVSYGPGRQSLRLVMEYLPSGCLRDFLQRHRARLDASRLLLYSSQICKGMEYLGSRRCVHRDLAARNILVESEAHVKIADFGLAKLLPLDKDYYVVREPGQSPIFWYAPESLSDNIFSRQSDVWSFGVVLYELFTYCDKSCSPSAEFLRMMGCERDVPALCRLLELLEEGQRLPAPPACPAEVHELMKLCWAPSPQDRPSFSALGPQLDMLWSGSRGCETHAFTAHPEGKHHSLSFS

[3] = AUC (0 to infinity) in ICR mouse at 10 mg/kg, iv administered as single dose by LC-MS/MS analysis; type: ADME, organism-based; design: route intravenous, time infinity, dose 10 mg/kg; settings: in vivo
[4] = target: Tyrosine-protein kinase JAK1 (Homo sapiens, UniProt P23458); test: Inhibition of recombinant human GST-tagged JAK1 cytoplasmic domain (866 to 1154 residues) expressed in baculovirus expression system using TK-substrate-biotin preincubated for 5 mins followed by substrate addition and measured after 30 mins by HTRF assay
Tyrosine-protein kinase JAK1, sequence (P23458 whole entry, the tested form may be a part): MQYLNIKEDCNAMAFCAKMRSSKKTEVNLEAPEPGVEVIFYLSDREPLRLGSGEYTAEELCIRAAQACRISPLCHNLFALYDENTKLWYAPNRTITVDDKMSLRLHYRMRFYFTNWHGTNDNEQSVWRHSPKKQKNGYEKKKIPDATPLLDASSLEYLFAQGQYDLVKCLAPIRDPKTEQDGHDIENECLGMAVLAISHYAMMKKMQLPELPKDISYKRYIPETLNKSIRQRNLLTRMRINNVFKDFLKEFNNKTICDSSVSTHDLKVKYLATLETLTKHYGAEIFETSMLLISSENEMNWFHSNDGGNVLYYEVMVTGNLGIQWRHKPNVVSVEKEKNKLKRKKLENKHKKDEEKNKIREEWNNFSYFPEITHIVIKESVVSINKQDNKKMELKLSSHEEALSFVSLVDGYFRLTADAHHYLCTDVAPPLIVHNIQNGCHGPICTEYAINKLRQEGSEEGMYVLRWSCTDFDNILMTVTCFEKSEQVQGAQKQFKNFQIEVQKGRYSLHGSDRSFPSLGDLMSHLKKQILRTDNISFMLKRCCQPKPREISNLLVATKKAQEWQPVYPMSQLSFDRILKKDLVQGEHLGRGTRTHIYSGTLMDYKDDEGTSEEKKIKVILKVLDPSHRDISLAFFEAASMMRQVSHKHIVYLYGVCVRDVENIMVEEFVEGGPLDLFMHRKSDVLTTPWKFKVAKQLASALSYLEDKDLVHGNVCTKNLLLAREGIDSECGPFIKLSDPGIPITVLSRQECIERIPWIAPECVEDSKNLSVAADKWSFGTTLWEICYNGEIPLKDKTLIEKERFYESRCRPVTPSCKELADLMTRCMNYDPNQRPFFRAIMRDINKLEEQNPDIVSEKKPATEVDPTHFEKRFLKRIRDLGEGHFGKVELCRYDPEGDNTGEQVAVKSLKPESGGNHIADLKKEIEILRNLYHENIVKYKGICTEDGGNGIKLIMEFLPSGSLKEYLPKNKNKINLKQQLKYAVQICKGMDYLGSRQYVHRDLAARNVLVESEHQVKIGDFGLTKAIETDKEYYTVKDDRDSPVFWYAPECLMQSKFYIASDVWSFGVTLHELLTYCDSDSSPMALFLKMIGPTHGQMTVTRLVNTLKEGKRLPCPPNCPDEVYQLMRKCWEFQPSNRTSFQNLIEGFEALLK

[5] = target: ERBB2 (Receptor tyrosine-protein kinase erbB-2) (Homo sapiens, UniProt P04626); test: Inhibition of His-tagged human recombinant ERBB2 (676 to 1255 residues) expressed in baculovirus expression system at 100 nM using Tyr 06 as substrate preincubated for 1 hr in presence of ATP by Z'-LYTE assay relative to control; settings: probe Tyr 06
ERBB2 (Receptor tyrosine-protein kinase erbB-2), sequence (P04626 whole entry, the tested form may be a part): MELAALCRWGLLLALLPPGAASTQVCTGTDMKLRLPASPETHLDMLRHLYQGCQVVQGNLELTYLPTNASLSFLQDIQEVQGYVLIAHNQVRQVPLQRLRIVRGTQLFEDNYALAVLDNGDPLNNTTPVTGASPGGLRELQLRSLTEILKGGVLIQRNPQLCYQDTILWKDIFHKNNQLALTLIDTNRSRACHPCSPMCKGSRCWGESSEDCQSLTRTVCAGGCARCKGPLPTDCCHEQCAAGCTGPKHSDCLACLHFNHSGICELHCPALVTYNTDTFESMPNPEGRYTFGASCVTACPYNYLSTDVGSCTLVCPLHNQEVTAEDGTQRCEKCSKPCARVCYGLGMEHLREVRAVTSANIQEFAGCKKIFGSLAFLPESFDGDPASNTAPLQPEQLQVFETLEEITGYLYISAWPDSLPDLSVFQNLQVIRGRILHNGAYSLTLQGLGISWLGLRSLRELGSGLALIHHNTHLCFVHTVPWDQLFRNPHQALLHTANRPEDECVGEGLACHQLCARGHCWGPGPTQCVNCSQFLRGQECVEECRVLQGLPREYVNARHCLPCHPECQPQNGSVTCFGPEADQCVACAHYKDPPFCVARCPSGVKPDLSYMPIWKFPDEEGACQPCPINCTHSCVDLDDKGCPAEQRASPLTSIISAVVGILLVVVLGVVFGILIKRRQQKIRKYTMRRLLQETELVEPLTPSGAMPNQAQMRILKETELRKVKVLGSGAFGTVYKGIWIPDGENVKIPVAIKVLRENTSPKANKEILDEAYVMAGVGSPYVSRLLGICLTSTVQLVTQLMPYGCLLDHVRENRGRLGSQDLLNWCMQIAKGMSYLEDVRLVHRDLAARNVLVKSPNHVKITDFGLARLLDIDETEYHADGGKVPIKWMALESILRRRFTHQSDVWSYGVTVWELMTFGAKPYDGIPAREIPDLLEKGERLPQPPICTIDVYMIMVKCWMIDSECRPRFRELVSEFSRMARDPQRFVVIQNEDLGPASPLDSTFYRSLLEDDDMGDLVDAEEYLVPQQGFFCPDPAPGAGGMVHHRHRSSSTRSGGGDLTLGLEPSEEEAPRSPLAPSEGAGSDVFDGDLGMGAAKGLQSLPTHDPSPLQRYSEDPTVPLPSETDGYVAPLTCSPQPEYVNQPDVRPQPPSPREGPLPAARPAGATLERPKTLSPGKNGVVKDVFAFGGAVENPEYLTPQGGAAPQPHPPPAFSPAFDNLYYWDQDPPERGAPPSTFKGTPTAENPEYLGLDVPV

[6] = target: RET (Proto-oncogene tyrosine-protein kinase receptor Ret) (Homo sapiens, UniProt P07949); test: Inhibition of recombinant human GST-tagged RET (658 to 1114 residues) expressed in baculovirus expression system at 100 nM using Tyr 02 as substrate incubated for 1 hr in presence of ATP by Z'-LYTE assay relative to control; settings: probe Tyr 02
RET (Proto-oncogene tyrosine-protein kinase receptor Ret), sequence (P07949 whole entry, the tested form may be a part): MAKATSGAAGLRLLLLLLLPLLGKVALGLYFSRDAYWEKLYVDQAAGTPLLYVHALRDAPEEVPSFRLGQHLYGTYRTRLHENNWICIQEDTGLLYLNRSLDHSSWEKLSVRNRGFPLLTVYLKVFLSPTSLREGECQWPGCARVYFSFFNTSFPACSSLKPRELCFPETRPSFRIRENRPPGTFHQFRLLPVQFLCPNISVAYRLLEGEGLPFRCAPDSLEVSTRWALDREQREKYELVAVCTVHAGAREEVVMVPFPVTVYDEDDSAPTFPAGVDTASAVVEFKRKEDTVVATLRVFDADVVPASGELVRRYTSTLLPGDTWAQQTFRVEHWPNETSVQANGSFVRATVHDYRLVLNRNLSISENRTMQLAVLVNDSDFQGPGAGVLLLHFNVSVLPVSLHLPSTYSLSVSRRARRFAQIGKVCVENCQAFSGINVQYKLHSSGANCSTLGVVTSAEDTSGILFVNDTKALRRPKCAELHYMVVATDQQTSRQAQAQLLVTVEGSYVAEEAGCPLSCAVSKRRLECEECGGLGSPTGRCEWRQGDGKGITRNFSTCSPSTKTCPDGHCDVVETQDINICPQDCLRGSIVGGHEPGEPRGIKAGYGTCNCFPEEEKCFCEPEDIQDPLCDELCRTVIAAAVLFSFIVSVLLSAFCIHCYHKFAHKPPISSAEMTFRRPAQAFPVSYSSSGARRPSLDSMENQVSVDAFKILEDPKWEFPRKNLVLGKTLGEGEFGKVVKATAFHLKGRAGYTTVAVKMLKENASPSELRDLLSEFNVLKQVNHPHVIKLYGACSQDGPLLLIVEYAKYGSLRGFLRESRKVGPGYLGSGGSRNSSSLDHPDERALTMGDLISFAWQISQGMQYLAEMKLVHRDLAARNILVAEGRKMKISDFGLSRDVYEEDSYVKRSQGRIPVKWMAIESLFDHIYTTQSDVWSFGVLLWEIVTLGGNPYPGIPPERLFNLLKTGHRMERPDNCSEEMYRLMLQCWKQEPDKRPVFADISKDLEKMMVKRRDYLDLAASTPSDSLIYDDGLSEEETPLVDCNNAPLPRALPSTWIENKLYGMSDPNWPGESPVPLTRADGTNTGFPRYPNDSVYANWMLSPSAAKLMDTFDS

[7] = target: T1, Tyrosine-protein kinase JAK3 (Homo sapiens); test: Inhibition of recombinant human GST-tagged JAK3 catalytic domain (781 to 1124 residues) expressed in baculovirus expression system using Tyr06 peptide as substrate at 100 nM incubated for 1 hr by Z'lyte assay relative to control
Mus musculus = test: Immunosuppressive activity in Balb/c mouse model of oxazolone-induced delayed type hypersensitivity assessed as reduction in ear swelling at 30 mg/kg, po measured after 7 days; type: functional, organism-based; settings: time 7.0 day
[8] = Terminal half life in ICR mouse at 10 mg/kg, iv administered as single dose by LC-MS/MS analysis; type: ADME, organism-based; settings: in vivo, read-out: beta t1/2 (converted)

## C=CC(=O)Nc1ccc(-c2ccnc(Nc3ccc(N4CCOCC4)cc3)n2)cc1
[1]
  MRT last: 43.8 min
[2]
  TDI: Active
[3]
  AUC(0-inf): 1270 ng·h/mL
[4]
  IC50: 1320 nM
[5]
  inhibition at 1 h, 0.1 µM: 19.2%
[6]
  inhibition at 1 h, 0.1 µM: 2.9%
[7]
  inhibition: 100%
Mus musculus
  Activity: Active
[8]
  half-life: 28.2 min
